Test system: hOB-03-C5, hOB-03-CE6 and hOB-01-C1 cells
Assay: hOB cell viability in serum-free medium, Coulter cell counter
Type: cell-based, human
Details: 39° C.
Description: For these experiments, the cells were treated with either control or PGE2 (panels A & B) or control and TGF-β1 (panel C) in serum-free medium at 39° C. for 3 or 6 days. The results are presented as the % relative to the day 0 control (i.e., […] cells per well of a 6 well plate). The results of this experiment indicate that hOB cell viability declines over time in serum-free medium. In addition, for the hOB-03-C5 and hOB-03-CE6 cells, this rate of decline is accelerated by treatment with PGE2. This enhanced rate of cell death correlates with the upregulation of hOB SFRP mRNA levels in these cells following PGE2 treatment. […]
The next day, one set of plates were rinsed with PBS, trypsinized, and baseline cell number (and mean cell volume) was determined with a Coulter Multisizer as previously described in Bodine et al. 1996 J. Bone Miner. […] The other set of plates was placed at the non-permissive temperature of 39° C., and cell number was determined 6 days later (the medium was changed on day 3). […]
The hypothesis that up-regulation of SFRP-1/FRP-1/SARP-2 gene expression accelerates hOB cell death, while down-regulation of SFRP-1/FRP-1/SARP-2 gene expression suppresses cell death, was next examined. […] Finally, treatment of the hOB-03-C5 cells with PGE2 increased annexin V (a specific marker for apoptosis) binding to the cell as measured by flow cytometry (FIG. 11).

| Compound | fewer cells remaining alive versus control (hOB-03-C5 and hOB-03-CE6 cells, 100 nM, 6 days) | increase in cell viability (hOB-01-C1 cells, 0.01–1.0 nM, dose-dependent) |
| --- | --- | --- |
| CCCCC[C@H](O)/C=C/[C@H]1[C@H](O)CC(=O)[C@@H]1C/C=C\CCCC(=O)O [PGE2, prostaglandin E2] | over 40% | – |
| human transforming growth factor-β1 [TGF-β1] | – | about 2 fold |
